According to patent publication US9770452B2, “Quinoxaline derivatives as GPR6 modulators” (Takeda Pharmaceutical Company Limited, priority 2012, dated 2017):

Tests used:
GPR6 receptor = target: T1, GPR6 receptor (Homo sapiens, UniProt P46095); test: Inhibition of cAMP Activity of GPR6 In Vitro Assay (CHO-K1 cells, HTRF cAMP); format: cell-based; conditions: compounds of Compound Table 1; inhibition of constitutive cAMP activity of GPR6 expressed in CHO-K1 cells; approximate IC50; read-out: IC50
T1 construct: expressed in transfected cells
In short: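 CHO-K1 cells with doxycycline-induced (1 μg/ml, 20 h) GPR6 treated with compounds 45 min at 37 °C in Ringer's buffer (pH 7.4) with 0.5% fatty acid free BSA. Constitutive cAMP measured by Lance HTRF Ultra cAMP; IC50 from four-parameter logistic fit.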

[1] = test system: haloperidol-induced catalepsy; test: Haloperidol-Induced Catalepsy, in vivo rodent Parkinson's disease model (rats); conditions: rat, 10 mpk sc
Excerpt: (§1) Haloperidol-Induced Catalepsy—In Vivo Rodent Parkinson's Disease Model
The motor symptoms of Parkinson's disease include akinesia, bradykinesia, rigidity, tremor and postural abnormalities and are associated with the loss of nigral dopaminergic cells and a decline in striatal dopamine levels. Administration of haloperidol to rodents leads to a transient parkinsonian-like state that is reversed by the administration of L-Dopa (Duty, S.; Jenner, P. Br. J. Pharmacol. (2011), 164, 1357-1391) and other drugs that have been clinically validated for the treatment of Parkinson's disease. […]
Male Sprague-Dawley rats (Charles River, Calco, Italy) weighing 175-200 g are used. […] The time span from placement of the paws until the first complete removal of one paw (descent latency) was measured maximally for 120 sec for rats. For mice, the front paws of a mouse was placed on a horizontal metal bar raised 2″ above a Plexiglas platform and time was recorded for up to 30 seconds per trial. […]
Catalepsy was measured 30 min, 120 min, and/or 240 min after dosing the subjects a 0.3 mg/kg i.p. dose of haloperidol along with the GPR6 modulator test compound. Test compound plasma and brain levels were determined by collected tissue samples at the end of the experiment, which was either at the 120 or 240 min time point. […]

[2] = test system: haloperidol-induced catalepsy; test: Haloperidol-Induced Catalepsy, in vivo rodent Parkinson's disease model (mice); conditions: mouse; for % reversal 30 min: 30 min after dosing with haloperidol; for % reversal 120 min: 120 min after dosing with haloperidol
Excerpt: as §1
The motor symptoms of Parkinson's disease include akinesia, bradykinesia, rigidity, tremor and postural abnormalities and are associated with the loss of nigral dopaminergic cells and a decline in striatal dopamine levels. Administration of haloperidol to rodents leads to a transient parkinsonian-like state that is reversed by the administration of L-Dopa (Duty, S.; Jenner, P. Br. J. Pharmacol. (2011), 164, 1357-1391) and other drugs that have been clinically validated for the treatment of Parkinson's disease. Haloperidol antagonizes dopamine D2 and, to a lesser extent, D1 receptors in medium spiny neurons that comprise the indirect and direct pathways of the motor circuit respectively. The resultant block of striatal dopamine transmission results in abnormal downstream firing within the basal ganglia circuits that is manifest as symptoms of muscle rigidity and catalepsy. Catalepsy has been postulated to reflect the clinical features of Parkinson's disease, whereby patients experience an inability of to initiate movements.
Male Sprague-Dawley rats (Charles River, Calco, Italy) weighing 175-200 g are used. Alternatively, male C57Bl6 mice weighing 25-35 g were used. The cataleptic state was induced by the subcutaneous administration of the dopamine receptor antagonist haloperidol (0.3 mg/kg, sc), 90 min before testing the animals on the vertical grid test. For this test, the rats or mice were placed on the wire mesh cover of a 25 cm×43 cm plexiglass cage placed at an angle of about 70 degrees with the bench table. The subject was placed on the grid with all four legs abducted and extended (“frog posture”). The use of such an unnatural posture is essential for the specificity of this test for catalepsy. The time span from placement of the paws until the first complete removal of one paw (descent latency) was measured maximally for 120 sec for rats. For mice, the front paws of a mouse was placed on a horizontal metal bar raised 2″ above a Plexiglas platform and time was recorded for up to 30 seconds per trial. The test ended when the animal's front paws returned to the platform or after 30 seconds. The test was repeated three times and the average of the three trials was reported as the intensity index of catalepsy.
Catalepsy was measured 30 min, 120 min, and/or 240 min after dosing the subjects a 0.3 mg/kg i.p. dose of haloperidol along with the GPR6 modulator test compound. Test compound plasma and brain levels were determined by collected tissue samples at the end of the experiment, which was either at the 120 or 240 min time point. A representative number of compounds of the invention were administered in a dose range from 0.1 to 100 mg/kg i.p, sc or po in conjunction with haloperidol. The A2a antagonist KW6002 (istradefylline) was dosed at 0.6 mg/kg i.p. as a positive control. The compounds of the invention produced reversal of haloperidol-induced catalepsy. The results of a representative no. of compounds of this invention in this assay are disclosed in the table below.

T1 sequence (P46095 whole entry): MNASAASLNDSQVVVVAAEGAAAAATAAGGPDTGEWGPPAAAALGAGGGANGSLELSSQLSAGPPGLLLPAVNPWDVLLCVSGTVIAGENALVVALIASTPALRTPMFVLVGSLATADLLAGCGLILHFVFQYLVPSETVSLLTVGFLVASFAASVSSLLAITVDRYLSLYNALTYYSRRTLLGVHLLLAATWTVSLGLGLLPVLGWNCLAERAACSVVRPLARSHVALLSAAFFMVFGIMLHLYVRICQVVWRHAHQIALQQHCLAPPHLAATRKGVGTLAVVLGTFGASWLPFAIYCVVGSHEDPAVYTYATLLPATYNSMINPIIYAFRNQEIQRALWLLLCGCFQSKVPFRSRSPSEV

| Compound | IC50 (GPR6 receptor) [nM] | % reversal 30 min ([1]; 30 min after dosing with haloperidol) [%] | % reversal 120 min ([1]; 120 min after dosing with haloperidol) [%] | % reversal 30 min ([2]; 30 mpk ip) [%] | % reversal 120 min ([2]; 30 mpk ip) [%] | % reversal 30 min ([2]; 10 mpk ip) [%] | % reversal 120 min ([2]; 10 mpk ip) [%] |
| --- | --- | --- | --- | --- | --- | --- | --- |
| 3-(4-(2,4-difluorobenzyl)piperidin-1-yl)-2-(pyridin-3-ylamino)quinoxaline-6-carbonitrile, 2,2,2-trifluoroacetic acid salt [Cpd 415] | 64 | 36.9 | 25.1 |  |  |  |  |
| Clc1cccc(Cl)c1CN1CCN(c2nc3ccccc3nc2NC2CC2)CC1.O=C(O)C(F)(F)F [Cpd 50, N-cyclopropyl-3-(4-(2,6-dichlorobenzyl)piperazin-1-yl)quinoxalin-2-amine, 2,2,2-trifluoroacetic acid salt] |  |  |  | 40.4 | 29.6 |  |  |
| Clc1cccc(CN2CCN(c3nc4ccccc4nc3Nc3cccnc3)CC2)c1.O=C(O)C(F)(F)F [Cpd 53, 3-(4-(3-chlorobenzyl)piperazin-1-yl)-N-(pyridin-3-yl)quinoxalin-2-amine, 2,2,2-trifluoroacetic acid salt] | 1200 |  |  | 13.6 | 15.4 |  |  |

More lines, main results first:

| IC50 (GPR6 receptor) [nM] | Compound | % reversal 30 min ([1]; 30 min after dosing with haloperidol) [%] | % reversal 120 min ([1]; 120 min after dosing with haloperidol) [%] | % reversal 30 min ([2]; 30 mpk ip) [%] | % reversal 120 min ([2]; 30 mpk ip) [%] | % reversal 30 min ([2]; 10 mpk ip) [%] | % reversal 120 min ([2]; 10 mpk ip) [%] |
| --- | --- | --- | --- | --- | --- | --- | --- |
| 2160 | Clc1ccc(Cl)c(CN2CCN(c3nc4ccccc4nc3NC3CC3)CC2)c1.O=C(O)C(F)(F)F [Cpd 33, N-cyclopropyl-3-(4-(2,5-dichlorobenzyl)piperazin-1-yl)quinoxalin-2-amine, 2,2,2-trifluoroacetic acid salt] |  |  | 48.1 | 41.4 |  |  |
| 250 | N#Cc1ccc2nc(NC3CC3)c(N3CCN(Cc4cc(Cl)ccc4Cl)CC3)nc2c1 [Cpd 59, 2-(cyclopropylamino)-3-(4-(2,5-dichlorobenzyl)piperazin-1-yl) quinoxaline-6-carbonitrile] |  |  | 27.4 | 15.7 | 42 | 18.8 |
